Earlier results, collected in patent publication US20200316037A1, “COMPOSITIONS AND METHODS FOR TREATING NEOPLASIA” (THE ANGIOGENESIS FOUNDATION, priority 2017, published 2020).
Read-outs that look alike come from different tables or passages of the source.

Legend:
[1] = for Undesirable Local Reactions (combined stinging, burning, itching, or irritation/dermatitis/rash): monotherapy at normal concentration and standard dose frequency; for Undesirable Local Reactions (combined itching, burning, bleeding, stinging, pain/soreness, tenderness, irritation): monotherapy
[2] = test system: superficial Basal Cell Carcinoma (sBCC); conditions: two double-blind vehicle-controlled studies; 5x/week x 6 weeks
[3] = test system: BCC; conditions: imiquimod open-label clinical study N=162

C=C1/C(=C\C=C2/CCC[C@]3(C)[C@@H]([C@H](C)/C=C/[C@@H](O)C4CC4)CC[C@@H]23)C[C@@H](O)C[C@@H]1O [Calcipotriene 0.005%, Calcipotriene]
Undesirable Local Reactions (combined stinging, burning, itching, or irritation/dermatitis/rash) [1]: 13-45%

CC1=C(/C=C/C(C)=C/C=C/C(C)=C/C(=O)O)C(C)(C)CCC1 [Tretinoin 0.1%, Tretinoin]
Undesirable Local Reactions (combined stinging, burning, itching, or irritation/dermatitis/rash) [1]: 15%

CCCCC(=O)O[C@]1(C(=O)CO)CC[C@H]2[C@@H]3CCC4=CC(=O)CC[C@]4(C)[C@H]3[C@@H](O)C[C@@]21C [Hydrocortisone valerate 0.2%, Hydrocortisone valerate]
Undesirable Local Reactions (combined stinging, burning, itching, or irritation/dermatitis/rash) [1]: 7%

CC(C)Cn1cnc2c(N)nc3ccccc3c21 [Imiquimod 5%, Imiquimod]
sBCC clearance [2]: 75% | Undesirable Local Reactions (combined itching, burning, bleeding, stinging, pain/soreness, tenderness, irritation) ([1]; 2x/week study): 39% | Undesirable Local Reactions (combined itching, burning, bleeding, stinging, pain/soreness, tenderness, irritation) ([1]; 3x/week study): 63% | Undesirable Local Reactions (combined itching, burning, bleeding, stinging, pain/soreness, tenderness, irritation) ([1]; 5x/week study): 28% | Incidence of inflammation ([1]; monotherapy per package label, imiquimod clinical studies): ≤ 97% | Recurrence Rate of BCC ([3]; Month 0): 10% | Recurrence Rate of BCC ([3]; Month 3): 13% | Recurrence Rate of BCC ([3]; Month 6): 15% | Recurrence Rate of BCC ([3]; Month 12): 16% | Recurrence Rate of BCC ([3]; Month 24): 21% | Recurrence Rate of BCC ([3]; Post-treatment): 0%
